Source: patent US10597388B2, “Pyridazinone herbicides” (FMC CORPORATION, priority 2014, dated 2020)

Key:
Experiment in all cases: Test C greenhouse herbicide test, pre- and postemergence
Format in all cases: in vivo
[1] = system: wheat (winter wheat, Triticum aestivum)
How it was run: (§1)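 Pre- and postemergence greenhouse screen; values are visual control ratings, 0 meaning no effect and 100 complete kill, assigned relative to untreated plants after 13 to 15 d.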

[2] = system: crabgrass, large (large crabgrass, Digitaria sanguinalis)
How it was run: as §1

[3] = system: blackgrass (Alopecurus myosuroides)
How it was run: as §1

corn (Zea mays) = system: corn (Zea mays)
How it was run: as §1

[4] = system: morningglory (Ipomoea coccinea)
How it was run: as §1

[5] = system: ryegrass, Italian (Italian ryegrass, Lolium multiflorum)
How it was run: as §1

[6] = system: waterhemp (common waterhemp, Amaranthus rudis)
How it was run: as §1

[7] = system: velvetleaf (Abutilon theophrasti)
How it was run: as §1

[8] = system: lambsquarters (Chenopodium album)
How it was run: as §1

[9] = system: ragweed (common ragweed, Ambrosia elatior)
How it was run: as §1

[10] = system: foxtail, giant (giant foxtail, Setaria faberii)
How it was run: as §1

[11] = system: pigweed (Amaranthus retroflexus)
How it was run: as §1

[12] = system: oilseed rape (Brassica napus)
How it was run: as §1

[13] = system: galium (catchweed bedstraw, Galium aparine)
How it was run: as §1

[14] = system: barnyardgrass (Echinochloa crus-galli)
How it was run: as §1

[15] = Postemergence, 31 g ai/ha, scale 0 to 100 (0 no effect, 100 complete control)
[16] = Postemergence, 125 g ai/ha, scale 0 to 100, 0 is no effect, 100 is complete control
[17] = Postemergence, 250 g ai/ha, scale 0 to 100, 0 no effect, 100 complete control, 13 to 15 d
[18] = Preemergence, 31 g ai/ha, scale 0 to 100, 0 is no effect, 100 is complete control
[19] = Preemergence, 62 g ai/ha, scale 0 to 100, 0 is no effect, 100 is complete control
[20] = Preemergence, 125 g ai/ha, scale 0 to 100, 0 is no effect, 100 is complete control
[21] = Preemergence, 250 g ai/ha, scale 0 to 100, 0 no effect, 100 complete control
[22] = postemergence, 62 g ai/ha, scale 0 to 100, 0 no effect, 100 complete control

## CC(=O)Oc1c(C)nn(C)c(=O)c1-c1c(C)sc2ccc(Cl)cc12 [Compound 108]
[1]; [15]
  Plant response rating, Wheat: 0
[1]; [16]
  Plant response rating, Wheat: 5
[1]; [17]
  Plant response rating, Wheat: 10
[1]; [18]
  Plant response rating, Wheat: 0
[1]; [19]
  Plant response rating, Wheat: 10
[1]; [20]
  Plant response rating, Wheat: 15
[1]; [21]
  Wheat plant response rating: 10
[2]; [15]
  Plant response rating, Crabgrass, Large: 5
[2]; [16]
  Plant response rating, Crabgrass, Large: 25
[2]; [17]
  Plant response rating, Crabgrass, Large: 40
[2]; [18]
  Plant response rating, Crabgrass, Large: 5
[2]; [19]
  Plant response rating, Crabgrass, Large: 70
[2]; [20]
  Plant response rating, Crabgrass, Large: 65
[2]; [21]
  Crabgrass, Large plant response rating: 70
[2]; [22]
  Crabgrass, Large plant response rating: 10
[3]; [15]
  Plant response rating, Blackgrass: 15
[3]; [16]
  Plant response rating, Blackgrass: 35
[3]; [17]
  Plant response rating, Blackgrass: 55
[3]; [18]
  Plant response rating, Blackgrass: 10
[3]; [19]
  Plant response rating, Blackgrass: 0
[3]; [20]
  Plant response rating, Blackgrass: 60
[3]; [21]
  Blackgrass plant response rating: 85
[3]; [22]
  Blackgrass plant response rating: 35
Corn (Zea mays); [15]
  Plant response rating, Corn: 5
Corn (Zea mays); [16]
  Plant response rating, Corn: 25
Corn (Zea mays); [17]
  Plant response rating, Corn: 30
Corn (Zea mays); [18]
  Plant response rating, Corn: 5
Corn (Zea mays); [19]
  Plant response rating, Corn: 10
Corn (Zea mays); [20]
  Plant response rating, Corn: 5
Corn (Zea mays); [21]
  Corn plant response rating: 15
Corn (Zea mays); [22]
  Corn plant response rating: 40
[4]; [15]
  Plant response rating, Morningglory: 98
[4]; [16]
  Plant response rating, Morningglory: 98
[4]; [17]
  Plant response rating, Morningglory: 100
[4]; [18]
  Plant response rating, Morningglory: 80
[4]; [19]
  Plant response rating, Morningglory: 90
[4]; [20]
  Plant response rating, Morningglory: 98
[4]; [21]
  Morningglory plant response rating: 98
[5]; [15]
  Plant response rating, Ryegrass, Italian: 90
[5]; [16]
  Plant response rating, Ryegrass, Italian: 90
[5]; [17]
  Plant response rating, Ryegrass, Italian: 90
[5]; [18]
  Plant response rating, Ryegrass, Italian: 60
[5]; [19]
  Plant response rating, Ryegrass, Italian: 85
[5]; [20]
  Plant response rating, Ryegrass, Italian: 90
[5]; [21]
  Ryegrass, Italian plant response rating: 95
[6]; [15]
  Plant response rating, Waterhemp: 85
[6]; [16]
  Plant response rating, Waterhemp: 90
[6]; [17]
  Plant response rating, Waterhemp: 98
[6]; [18]
  Plant response rating, Waterhemp: 75
[6]; [19]
  Plant response rating, Waterhemp: 90
[6]; [20]
  Plant response rating, Waterhemp: 100
[6]; [21]
  Waterhemp plant response rating: 100
[7]; [15]
  Plant response rating, Velvetleaf: 70
[7]; [16]
  Plant response rating, Velvetleaf: 100
[7]; [17]
  Plant response rating, Velvetleaf: 100
[7]; [18]
  Plant response rating, Velvetleaf: 50
[7]; [19]
  Plant response rating, Velvetleaf: 75
[7]; [20]
  Plant response rating, Velvetleaf: 85
[7]; [21]
  Velvetleaf plant response rating: 90
[8]; [15]
  Plant response rating, Lambsquarters: 90
[8]; [16]
  Plant response rating, Lambsquarters: 98
[8]; [17]
  Plant response rating, Lambsquarters: 98
[8]; [18]
  Plant response rating, Lambsquarters: 85
[8]; [19]
  Plant response rating, Lambsquarters: 90
[8]; [20]
  Plant response rating, Lambsquarters: 90
[8]; [21]
  Lambsquarters plant response rating: 100
[9]; [15]
  Plant response rating, Ragweed: 90
[9]; [16]
  Plant response rating, Ragweed: 98
[9]; [17]
  Plant response rating, Ragweed: 100
[9]; [18]
  Plant response rating, Ragweed: 75
[9]; [19]
  Plant response rating, Ragweed: 90
[9]; [20]
  Plant response rating, Ragweed: 98
[9]; [21]
  Ragweed plant response rating: 98
[10]; [15]
  Plant response rating, Foxtail, Giant: 30
[10]; [16]
  Plant response rating, Foxtail, Giant: 75
[10]; [17]
  Plant response rating, Foxtail, Giant: 85
[10]; [18]
  Plant response rating, Foxtail, Giant: 65
[10]; [19]
  Plant response rating, Foxtail, Giant: 85
[10]; [20]
  Plant response rating, Foxtail, Giant: 85
[10]; [21]
  Foxtail, Giant plant response rating: 95
[11]; [15]
  Plant response rating, Pigweed: 90
[11]; [16]
  Plant response rating, Pigweed: 98
[11]; [17]
  Plant response rating, Pigweed: 98
[11]; [18]
  Plant response rating, Pigweed: 100
[11]; [19]
  Plant response rating, Pigweed: 100
[11]; [20]
  Plant response rating, Pigweed: 100
[11]; [21]
  Pigweed plant response rating: 100
[12]; [15]
  Plant response rating, Oilseed Rape: 80
[12]; [16]
  Plant response rating, Oilseed Rape: 85
[12]; [17]
  Plant response rating, Oilseed Rape: 95
[12]; [18]
  Plant response rating, Oilseed Rape: 5
[12]; [19]
  Plant response rating, Oilseed Rape: 90
[12]; [20]
  Plant response rating, Oilseed Rape: 90
[12]; [21]
  Oilseed Rape plant response rating: 90
[13]; [15]
  Plant response rating, Galium: 90
[13]; [16]
  Plant response rating, Galium: 95
[13]; [17]
  Plant response rating, Galium: 95
[13]; [18]
  Plant response rating, Galium: 90
[13]; [19]
  Plant response rating, Galium: 90
[13]; [20]
  Plant response rating, Galium: 95
[13]; [21]
  Galium plant response rating: 95
[14]; [15]
  Plant response rating, Barnyardgrass: 20
[14]; [16]
  Plant response rating, Barnyardgrass: 40
[14]; [17]
  Plant response rating, Barnyardgrass: 60
[14]; [18]
  Plant response rating, Barnyardgrass: 5
[14]; [19]
  Plant response rating, Barnyardgrass: 35
[14]; [20]
  Plant response rating, Barnyardgrass: 35
[14]; [21]
  Barnyardgrass plant response rating: 85
[14]; [22]
  Barnyardgrass plant response rating: 35
